# Results from the supplement of paper PMC10307832.
# Assays:
# Assay in all cases: relative viability (nuclei count vs DMSO), 5 days (fraction); higher = more cells survive
# XMD14-99 + Decitabine = compound: CN1CCN(CC1)C2=CC(=C(C=C2)NC3=NC(=C(S3)C(=O)C4=C(C=CC=C4Cl)Cl)N)OC [XMD14-99] + Nc1ncn([C@H]2C[C@H](O)[C@@H](CO)O2)c(=O)n1 [Decitabine] (partner 2 µM)
# In short: (§1)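 Relative viability was taken as the ratio of nuclei in treated wells to nuclei in vehicle wells. Lung cancer cell lines in 1536-well plates received compounds by pin tool one day after seeding, either one drug alone or a fixed anchor-drug dose plus five library-drug doses (not always all listed) in √10 steps. Nuclei were counted on 4× images after 5 days of treatment, and values are medians of duplicate plates.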
# XMD14-99 + Vorinostat = compound: CN1CCN(CC1)C2=CC(=C(C=C2)NC3=NC(=C(S3)C(=O)C4=C(C=CC=C4Cl)Cl)N)OC [XMD14-99] + O=C(CCCCCCC(=O)Nc1ccccc1)NO [Vorinostat] (partner 1 µM)
# In short: as §1
# AZD1208 + Navitoclax = compound: N[C@@H]1CCCN(c2c(/C=C3\SC(=O)NC3=O)cccc2-c2ccccc2)C1 [AZD1208] + CC1(C)CCC(c2ccc(Cl)cc2)=C(CN2CCN(c3ccc(C(=O)NS(=O)(=O)c4ccc(N[C@H](CCN5CCOCC5)CSc5ccccc5)c(S(=O)(=O)C(F)(F)F)c4)cc3)CC2)C1 [Navitoclax] (partner 0.5 µM)
# In short: as §1
# XMD14-99 + Foretinib = compound: CN1CCN(CC1)C2=CC(=C(C=C2)NC3=NC(=C(S3)C(=O)C4=C(C=CC=C4Cl)Cl)N)OC [XMD14-99] + COc1cc2c(Oc3ccc(NC(=O)C4(C(=O)Nc5ccc(F)cc5)CC4)cc3F)ccnc2cc1OCCCN1CCOCC1 [Foretinib] (partner 0.25 µM)
# In short: as §1
Cell Line,relative viability (XMD14-99 + Decitabine; first compound 0.08 µM),relative viability (XMD14-99 + Decitabine; first compound 0.8 µM),relative viability (XMD14-99 + Decitabine; first compound 2.53 µM),relative viability (XMD14-99 + Decitabine; first compound 8 µM),relative viability (XMD14-99 + Vorinostat; first compound 0.08 µM),relative viability (XMD14-99 + Vorinostat; first compound 0.8 µM),relative viability (XMD14-99 + Vorinostat; first compound 2.53 µM),relative viability (XMD14-99 + Vorinostat; first compound 8 µM),relative viability (AZD1208 + Navitoclax; first compound 0.08 µM),relative viability (AZD1208 + Navitoclax; first compound 0.253 µM),relative viability (AZD1208 + Navitoclax; first compound 0.8 µM),relative viability (AZD1208 + Navitoclax; first compound 2.53 µM),relative viability (AZD1208 + Navitoclax; first compound 8 µM),relative viability (XMD14-99 + Foretinib; first compound 0.08 µM),relative viability (XMD14-99 + Foretinib; first compound 0.8 µM),relative viability (XMD14-99 + Foretinib; first compound 2.53 µM),relative viability (XMD14-99 + Foretinib; first compound 8 µM)
HCC-44,1.01,0.902,0.898,0.911,1.12,1.1,1.13,1.04,0.91,1.07,0.94,1.04,0.899,–,–,–,–
HCC-78,0.709,0.646,0.822,0.47,0.404,0.408,0.369,0.382,0.951,0.752,0.672,0.685,0.709,0.506,0.489,0.566,0.53
HCC-366,0.32,0.363,0.347,0.291,0.42,0.324,0.296,0.218,1.1,0.965,1.02,1.05,0.927,0.912,0.943,0.96,0.918
HCC-827,0.354,0.273,0.296,0.306,0.929,0.571,0.74,0.701,1.05,1.11,0.984,1.07,0.983,1.06,0.935,0.978,0.727
HOP-62,0.23,0.226,0.237,0.273,0.668,0.804,0.661,0.441,1.05,0.886,1.05,0.969,1.07,1.01,1.05,1.02,1.01
IA-LM,–,–,–,–,0.96,0.728,0.649,0.515,0.812,0.865,0.651,0.621,0.794,1.05,0.964,0.978,0.458
LC-2-ad,0.776,0.727,0.777,0.745,0.672,0.704,0.646,0.553,0.36,0.356,0.331,0.397,0.489,1,1.01,0.849,0.836
LCLC-97TM1,0.226,0.233,0.236,0.255,0.732,0.661,0.604,0.315,0.369,0.271,–,0.446,0.21,0.918,0.855,0.918,0.641
LCLC-103H,0.715,0.739,0.721,0.682,0.786,0.798,0.759,0.664,–,–,–,–,–,0.802,0.691,0.734,0.607
NCI-H358,0.231,0.187,0.203,0.174,0.686,0.653,0.553,0.309,–,–,–,–,–,0.759,0.745,0.574,0.392
NCI-H522,0.703,0.648,0.554,0.672,0.809,0.889,0.757,0.956,–,–,–,–,–,–,–,–,–
NCI-H650,0.272,0.318,0.292,0.319,0.348,0.455,0.439,0.411,–,–,–,–,–,1.05,1.01,0.944,0.935
NCI-H661,0.562,0.55,0.502,0.44,0.807,0.768,0.627,0.522,–,–,–,–,–,0.93,0.883,0.796,0.681
NCI-H1299,–,–,–,–,–,–,–,–,1.1,1.09,1.08,1,1.04,1.11,1.02,1.1,0.949
NCI-H1563,–,–,–,–,–,–,–,–,–,–,–,–,–,0.878,0.941,0.871,0.74
NCI-H1648,0.47,0.501,0.479,0.455,0.397,0.287,0.437,0.395,–,–,–,–,–,–,–,–,–
NCI-H1703,–,–,–,–,–,–,–,–,0.98,1.19,0.88,0.878,0.783,0.345,0.329,0.339,0.273
NCI-H1792,0.497,0.499,0.549,0.326,–,–,–,–,0.678,0.779,0.531,0.645,0.557,–,–,–,–
NCI-H2228,–,–,–,–,0.719,0.683,0.727,0.33,0.782,0.766,0.713,–,0.51,0.994,0.806,0.83,0.444
NCI-H2342,0.724,0.739,0.765,0.638,0.747,0.703,0.872,0.989,–,–,–,–,–,1.15,0.943,0.973,0.784
SW 900,0.413,0.443,0.386,0.419,0.509,0.667,0.489,0.432,–,–,–,–,–,1.02,0.694,0.802,0.718
